In this assay the target is T1, AhR (Homo sapiens, UniProt P35869).
T1 sequence (P35869 11-848): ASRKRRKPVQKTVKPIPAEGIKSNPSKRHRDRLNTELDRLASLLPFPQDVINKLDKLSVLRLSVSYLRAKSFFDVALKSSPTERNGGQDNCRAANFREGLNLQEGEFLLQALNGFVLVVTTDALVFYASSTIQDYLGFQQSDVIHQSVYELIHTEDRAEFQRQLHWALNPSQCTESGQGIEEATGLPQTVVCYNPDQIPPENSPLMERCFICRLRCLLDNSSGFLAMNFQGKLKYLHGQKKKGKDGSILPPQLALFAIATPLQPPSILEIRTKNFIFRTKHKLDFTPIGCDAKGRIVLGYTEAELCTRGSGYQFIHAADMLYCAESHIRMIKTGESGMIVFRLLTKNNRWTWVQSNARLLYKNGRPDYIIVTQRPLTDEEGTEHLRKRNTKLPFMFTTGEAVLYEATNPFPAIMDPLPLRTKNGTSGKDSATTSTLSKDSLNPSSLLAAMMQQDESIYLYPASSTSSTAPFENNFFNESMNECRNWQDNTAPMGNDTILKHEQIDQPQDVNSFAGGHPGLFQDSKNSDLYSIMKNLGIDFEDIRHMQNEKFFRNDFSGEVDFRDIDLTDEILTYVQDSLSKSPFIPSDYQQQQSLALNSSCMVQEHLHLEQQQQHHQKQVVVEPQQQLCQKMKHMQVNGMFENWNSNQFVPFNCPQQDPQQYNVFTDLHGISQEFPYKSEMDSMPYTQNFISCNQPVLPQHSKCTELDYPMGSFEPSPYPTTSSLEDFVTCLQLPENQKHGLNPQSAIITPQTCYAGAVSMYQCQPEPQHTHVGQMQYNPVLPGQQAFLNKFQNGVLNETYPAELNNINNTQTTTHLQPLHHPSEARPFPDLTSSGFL
Briefly: In Vitro Assay 1: XRE-luciferase reporter assay, antagonism in human cell line (HepG2). The conditions noted are these: Assay 1: AhR-Luc Human Antagonism (IC50, nM), values marked *: kynurenine 50 μM, 6 hours. On the technique in general: A reporter such as luciferase makes a cellular process visible.

The record followed here is patent US20230150970A1, “AMINOPYRIMIDINE DERIVATIVES AND THEIR USE AS ARYL HYDROCARBON RECEPTOR MODULATORS” (DONG-A ST CO., LTD., priority 2020, published 2023).

Some results are limits rather than exact numbers.

The IC50 is the concentration at which inhibition is half-maximal. Low readings indicate inhibition by little substance, high ones a need for much substance.

In turn, `Clc1ccc(-c2cc(NC3CCN(Cc4ccccc4)C3)nc(-c3cccnc3)n2)cc1` (stereo not shown) [Example 132, N-(1-benzylpyrrolidin-3-yl)-6-(4-chlorophenyl)-2-(pyridin-3-yl)pyrimidin-4-amine] displayed an IC50 of 100 to 1000 nM.

The compound `O[C@@H]1CNC[C@@H]1Nc1cc(-c2ccc(Cl)cc2)nc(-c2cccnc2)n1` [Example 133, (3R,4S)-4-((6-(4-chlorophenyl)-2-(pyridin-3-yl)pyrimidin-4-yl)amino)pyrrolidin-3-ol] had an IC50 greater than 1000 nM.

Turning to `O[C@H]1CNC[C@H]1Nc1cc(-c2ccc(Cl)cc2)nc(-c2cccnc2)n1` [Example 134, (3S,4R)-4-((6-(4-chlorophenyl)-2-(pyridin-3-yl)pyrimidin-4-yl)amino)pyrrolidin-3-ol], the IC50 was greater than 1000 nM.

The compound `Clc1ccc(-c2cc(N3CCCC3)nc(-c3cccnc3)n2)cc1` [Example 135, 4-(4-chlorophenyl)-2-(pyridin-3-yl)-6-(pyrrolidin-1-yl)pyrimidine] returned an IC50 of 10 to 100 nM.

Turning to `CC1CCCN1c1cc(-c2ccc(Cl)cc2)nc(-c2cccnc2)n1` (stereo not shown) [Example 136, 4-(4-chlorophenyl)-6-(2-methylpyrrolidin-1-yl)-2-(pyridin-3-yl)pyrimidine], the IC50 was 100 to 1000 nM.

`OCC1CCN(c2cc(-c3ccc(Cl)cc3)nc(-c3cccnc3)n2)C1` (stereo not shown) [Example 138, (1-(6-(4-chlorophenyl)-2-(pyridin-3-yl)pyrimidin-4-yl)pyrrolidin-3-yl)methanol] returned an IC50 of less than 10 nM.

For the compound `F[C@@H]1CCN(c2cc(-c3ccc(Cl)cc3)nc(-c3cccnc3)n2)C1` [Example 139, (R)-4-(4-chlorophenyl)-6-(3-fluoropyrrolidin-1-yl)-2-(pyridin-3-yl)pyrimidine], the concentration for half-maximal inhibition (IC50) is 10 to 100 nM.

`NC1CCN(c2cc(-c3ccc(Cl)cc3)nc(-c3cccnc3)n2)C1` (stereo not shown) [Example 140, 1-(6-(4-chlorophenyl)-2-(pyridin-3-yl)pyrimidin-4-yl)pyrrolidin-3-amine]: the IC50 was greater than 1000 nM.

In turn, `CNC1CCN(c2cc(-c3ccc(Cl)cc3)nc(-c3cccnc3)n2)C1` (stereo not shown) [Example 141, 1-(6-(4-chlorophenyl)-2-(pyridin-3-yl)pyrimidin-4-yl)-N-methylpyrrolidin-3-amine] came in with a half-maximal inhibitory concentration (IC50) greater than 1000 nM.

The compound `COC(=O)[C@@H]1CCCN1c1cc(-c2ccc(Cl)cc2)nc(-c2cccnc2)n1` [Example 142, methyl (6-(4-chlorophenyl)-2-(pyridin-3-yl)pyrimidin-4-yl)prolinate] displayed an IC50 of 100 to 1000 nM.

The compound `CC(O)C(C)Nc1cc(-c2ccc(Cl)cc2)nc(-c2cccnc2)n1` (stereo not shown) [Example 145, 3-((6-(4-chlorophenyl)-2-(pyridin-3-yl)pyrimidin-4-yl)amino)butan-2-ol] yielded an IC50 of 100 to 1000 nM.

In turn, `OC[C@@H]1CCCN(c2cc(-c3ccc(Cl)cc3)nc(-c3cccnc3)n2)C1` [Example 147, (R)-(1-(6-(4-chlorophenyl)-2-(pyridin-3-yl)pyrimidin-4-yl)piperidin-3-yl)methanol] registered an IC50 of less than 10 nM.

In turn, `OC[C@H]1CCCN(c2cc(-c3ccc(Cl)cc3)nc(-c3cccnc3)n2)C1` [Example 148, (S)-(1-(6-(4-chlorophenyl)-2-(pyridin-3-yl)pyrimidin-4-yl)piperidin-3-yl)methanol] yielded an IC50 of 10 to 100 nM.

Compound `Clc1ccc(-c2cc(NCCN3CCCCC3)nc(-c3cccnc3)n2)cc1` [Example 149, 6-(4-chlorophenyl)-N-(2-(piperidin-1-yl)ethyl)-2-(pyridin-3-yl)pyrimidin-4-amine] showed an IC50 greater than 1000 nM.

For the compound `N#CC1CCN(c2cc(-c3ccc(Cl)cc3)nc(-c3cccnc3)n2)CC1` [Example 150, 1-(6-(4-chlorophenyl)-2-(pyridin-3-yl)pyrimidin-4-yl)piperidine-4-carbonitrile], the IC50 was less than 10 nM.

Consider `OC1(c2cccc(C(F)(F)F)c2)CCN(c2cc(-c3ccc(Cl)cc3)nc(-c3cccnc3)n2)CC1` [Example 151, 1-(6-(4-chlorophenyl)-2-(pyridin-3-yl)pyrimidin-4-yl)-4-(3-(trifluoromethyl)phenyl)piperidin-4-ol], for which the IC50 is greater than 1000 nM.

`Clc1ccc(-c2cc(N3CCC(N4CCCC4)CC3)nc(-c3cccnc3)n2)cc1` [Example 152, 4-(4-chlorophenyl)-2-(pyridin-3-yl)-6-(4-(pyrrolidin-1-yl)piperidin-1-yl)pyrimidine] came in with an IC50 of 100 to 1000 nM.

As to `OC1(c2ccc(Cl)cc2)CCN(c2cc(-c3ccc(Cl)cc3)nc(-c3cccnc3)n2)CC1` [Example 153, 4-(4-chlorophenyl)-1-(6-(4-chlorophenyl)-2-(pyridin-3-yl)pyrimidin-4-yl)piperidin-4-ol], the concentration for half-maximal inhibition (IC50) is greater than 1000 nM.

In turn, `CC(=O)C1(c2ccccc2)CCN(c2cc(-c3ccc(Cl)cc3)nc(-c3cccnc3)n2)CC1` [Example 155, 1-(1-(6-(4-chlorophenyl)-2-(pyridin-3-yl)pyrimidin-4-yl)-4-phenylpiperidin-4-yl)ethan-1-one] showed an IC50 greater than 1000 nM.

Turning to `Clc1ccc(-c2cc(N3CCC(N4CCOCC4)CC3)nc(-c3cccnc3)n2)cc1` [Example 156, 4-(1-(6-(4-chlorophenyl)-2-(pyridin-3-yl)pyrimidin-4-yl)piperidin-4-yl)morpholine], the IC50 is less than 10 nM.

Regarding `Clc1ccc(-c2cc(N3CCC(c4cc(Cl)cc(Cl)c4)CC3)nc(-c3cccnc3)n2)cc1` [Example 157, 4-(4-chlorophenyl)-6-(4-(3,5-dichlorophenyl)piperidin-1-yl)-2-(pyridin-3-yl)pyrimidine], the IC50 was greater than 1000 nM.

`Clc1ccc(-c2cc(NCC3CCCN(C4CCCCC4)C3)nc(-c3cccnc3)n2)cc1` (stereo not shown) [Example 158, 6-(4-chlorophenyl)-N-((1-cyclohexylpiperidin-3-yl)methyl)-2-(pyridin-3-yl)pyrimidin-4-amine]: the IC50 fell in the range of 100 to 1000 nM.

Compound `Clc1ccc(-c2cc(NCC3CCN(Cc4ccccc4)CC3)nc(-c3cccnc3)n2)cc1` [Example 159, N-((1-benzylpiperidin-4-yl)methyl)-6-(4-chlorophenyl)-2-(pyridin-3-yl)pyrimidin-4-amine] registered a 50% inhibitory concentration (IC50) of 100 to 1000 nM.

`CCOC(=O)CC(=O)C1CCN(c2cc(-c3ccc(Cl)cc3)nc(-c3cccnc3)n2)CC1` [Example 160, ethyl 3-(1-(6-(4-chlorophenyl)-2-(pyridin-3-yl)pyrimidin-4-yl)piperidin-4-yl)-3-oxopropanoate] had an IC50 greater than 1000 nM.

The compound `CCOC(=O)CC1CCN(c2cc(-c3ccc(Cl)cc3)nc(-c3cccnc3)n2)CC1` [Example 161, ethyl 2-(1-(6-(4-chlorophenyl)-2-(pyridin-3-yl)pyrimidin-4-yl)piperidin-4-yl)acetate] had an IC50 greater than 1000 nM.

In turn, `O[C@H]1CCCN(c2cc(-c3ccc(Cl)cc3)nc(-c3cccnc3)n2)C1` [Example 163, (S)-1-(6-(4-chlorophenyl)-2-(pyridin-3-yl)pyrimidin-4-yl)piperidin-3-ol] gave a 50% inhibitory concentration (IC50) of 10 to 100 nM.

Consider `CN(C)C1CCN(c2cc(-c3ccc(Cl)cc3)nc(-c3cccnc3)n2)C1` (stereo not shown) [Example 164, 1-(6-(4-chlorophenyl)-2-(pyridin-3-yl)pyrimidin-4-yl)-N,N-dimethylpyrrolidin-3-amine], for which the IC50 lay in the range of 100 to 1000 nM.

Consider `CN(C)CCC1CCCN1c1cc(-c2ccc(Cl)cc2)nc(-c2cccnc2)n1` (stereo not shown) [Example 165, 2-(1-(6-(4-chlorophenyl)-2-(pyridin-3-yl)pyrimidin-4-yl)pyrrolidin-2-yl)-N,N-dimethylethan-1-amine], for which the IC50 was greater than 1000 nM.
